Results from US12622910B2, “Inhibitors of Bruton's tyrosine kinase and methods of their use” (Janssen Pharmaceutica NV, priority 2021, dated 2026).

Assay: Phase 1 first-in-human study, safety (TEAEs)
Type: in vivo
Text: Study Participants—Volunteers aged 18-58 years, with a body mass index (BMI) of 18-30 kg/m^2, body weight ≥50 kg, and who were considered healthy based on medical history, physical examination, clinical laboratory evaluation, and 12-lead electrocardiogram (ECG) were enrolled in this study. Females were required to be surgically sterile or postmenopausal. Key exclusion criteria were history of, or current, clinically significant medical illness and history of malignancy within 5 years.
Study Design—This phase 1, randomized, double-blind, placebo-controlled, single-center study (NCT03607513; EudraCT 2018-000428-32) was conducted between July 2018 and August 2019 at the Janssen Clinical Pharmacology Unit in Merksem, Belgium.The study comprised two distinct parts; Part 1 examined SAD of compound of Formula (III) and Part 2 assessed MAD of compound of Formula (III).
Safety, tolerability, PK, and BTKO were assessed for six doses of compound of Formula (III) oral solution (4, 12, 36, 100, 200, 400 mg) in participants under fasted conditions. The SAD part comprised 10 cohorts of 8 participants each (FIG. 1). In each cohort receiving compound of Formula (III) oral solution (Cohorts 1-9), 6 participants were randomized to receive compound of Formula (III) and 2 to receive placebo. All participants in Cohort 10 received compound of Formula (III) as an oral capsule. All 10 cohorts included 2 sentinel participants who were dosed ˜24 hours prior to the rest of the cohort. In cohorts receiving compound of Formula (III) oral solution, 1 sentinel participant received compound of Formula (III) and the other received placebo.
Six male escalating dose cohorts received a single oral dose of 4, 12, 36, 100, 200, 400 mg compound of Formula (III) or placebo solution under fasted conditions. Gender effects were assessed in 2 female cohorts whose participants received either a 36 or 100 mg dose of compound of Formula (III) or placebo as an oral solution under fasted conditions. Food effects were evaluated in a male cohort receiving compound of Formula (III) 100 mg or placebo as an oral solution after a high-fat breakfast.
Safety, tolerability, and PK of a solid dose formulation of compound of Formula (III) were assessed in an additional male cohort (Cohort 10) that received 3×35 mg (105 mg) of compound of Formula (III) in the fasted state. Since all the participants received the same dose of compound of Formula (III), this cohort was not blinded.
Safety, tolerability, PK, and BTKO following multiple compound of Formula (III) doses were evaluated in 3 dose escalation cohorts with a total of 18 participants (males: 9, females: 9) receiving active study drug. In each cohort, 3 males and 3 females were randomized to receive 36 mg once-daily (QD), 100 mg QD, or 200 mg QD compound of Formula (III) oral solution and 3 participants (males: 2; female: 1) to receive placebo. Two male participants in each cohort served as sentinel participants: one received compound of Formula (III) and other received placebo ˜48 hours prior to other participants in the cohort. All safety and tolerability data (through the follow-up visit), PK data (through at least 24 hours after last dose administration), and all available PD data were reviewed from each cohort before a decision was made to dose escalate.
Safety—Safety evaluations were based upon the type, incidence, and severity of treatment-emergent adverse events (TEAEs) reported throughout the study, and concomitant medication reporting, clinical laboratory tests, physical examinations, vital sign measurements, and ECGs assessed at pre-defined time points. The TEAEs and serious TEAEs were coded using the Medical Dictionary for Regulatory Activities (MedDRA Version 21.0) and summarized by system-organ class (SOC) and preferred terms.

C=CC(=O)N[C@H]1CCC[C@H]1NC(=O)c1sc2nccc3c2c1NC(=O)N3c1cnc(CC(C)C)cc1C (atropisomer, axis not shown) [compound of Formula (III), N-((1R,2S)-2-Acrylamidocyclopentyl)-5-(S)-(6-isobutyl-4-methylpyridin-3-yl)-4-oxo-4,5-dihydro-3H-1-thia-3,5,8-triazaacenaphthylene-2-carboxamide]
Administration site irritation, n (%) (Part 1, 4 mg fasted): 1
Headache, n (%) (Part 1, 4 mg fasted): 1
Patients with ≥1 TEAEs, n (%) (Part 1, 4 mg fasted): 2
Administration site irritation, n (%) (Part 1, 12 mg fasted): 0
Headache, n (%) (Part 1, 12 mg fasted): 2
Patients with ≥1 TEAEs, n (%) (Part 1, 12 mg fasted): 3
Administration site irritation, n (%) (Part 1, 36 mg fasted): 0
Headache, n (%) (Part 1, 36 mg fasted): 2
Patients with ≥1 TEAEs, n (%) (Part 1, 36 mg fasted): 4
Administration site irritation, n (%) (Part 1, 100 mg fasted): 0
Headache, n (%) (Part 1, 100 mg fasted): 0
Patients with ≥1 TEAEs, n (%) (Part 1, 100 mg fasted): 4
Administration site irritation, n (%) (Part 1, 100 mg fed): 0
Headache, n (%) (Part 1, 100 mg fed): 1
Patients with ≥1 TEAEs, n (%) (Part 1, 100 mg fed): 1
Administration site irritation, n (%) (Part 1, 105 mg solid): 0
Headache, n (%) (Part 1, 105 mg solid): 1
Patients with ≥1 TEAEs, n (%) (Part 1, 105 mg solid): 3
Administration site irritation, n (%) (Part 1, 200 mg fasted): 1
Headache, n (%) (Part 1, 200 mg fasted): 1
Patients with ≥1 TEAEs, n (%) (Part 1, 200 mg fasted): 4
Administration site irritation, n (%) (Part 1, 400 mg fasted): 0
Headache, n (%) (Part 1, 400 mg fasted): 0
Patients with ≥1 TEAEs, n (%) (Part 1, 400 mg fasted): 3
headache, incidence (Part 1, all treated): 13.3%
nasal congestion, incidence (Part 1, all treated): 5%
Administration site irritation, n (%) (Part 1, total N = 60): 2(3.3)
Headache, n (%) (Part 1, total N = 60): 8 (13.3)
Abdominal discomfort, n (%) (Part 2, 36 mg): 1 (16.7)
Abdominal pain, n (%) (Part 2, 36 mg): 0
Abnormal dreams, n (%) (Part 2, 36 mg): 0
Administration site irritation, n (%) (Part 2, 36 mg): 1 (16.7)
Back pain, n (%) (Part 2, 36 mg): 1 (16.7)
Cough, n (%) (Part 2, 36 mg): 0
Dehydration, n (%) (Part 2, 36 mg): 0
Diarrhea, n (%) (Part 2, 36 mg): 0
Dizziness, n (%) (Part 2, 36 mg): 0
Dysgeusia, n (%) (Part 2, 36 mg): 0
Fatigue, n (%) (Part 2, 36 mg): 0
Flatulence, n (%) (Part 2, 36 mg): 1 (16.7)
Headache, n (%) (Part 2, 36 mg): 0
Hot flush, n (%) (Part 2, 36 mg): 0
Increased bronchial secretion, n (%) (Part 2, 36 mg): 0
Injection site hematoma, n (%) (Part 2, 36 mg): 0
Injection site reaction, n (%) (Part 2, 36 mg): 1 (16.7)
Lipase increased, n (%) (Part 2, 36 mg): 0
Myalgia, n (%) (Part 2, 36 mg): 0
Nasopharyngitis, n (%) (Part 2, 36 mg): 0
Nausea, n (%) (Part 2, 36 mg): 0
Oral dysaesthesia, n (%) (Part 2, 36 mg): 0
Oropharyngeal pain, n (%) (Part 2, 36 mg): 0
Paresthesia, n (%) (Part 2, 36 mg): 2 (33.3)
Patients with ≥1 TEAEs, n (%) (Part 2, 36 mg): 4 (66.7)
Regurgitation, n (%) (Part 2, 36 mg): 1 (16.7)
Skin irritation, n (%) (Part 2, 36 mg): 0
Skin reaction, n (%) (Part 2, 36 mg): 1 (16.7)
Somnolence, n (%) (Part 2, 36 mg): 0
Vertigo, n (%) (Part 2, 36 mg): 0
Vessel puncture site hematoma, n (%) (Part 2, 36 mg): 0
Vision blurred, n (%) (Part 2, 36 mg): 0
Abdominal discomfort, n (%) (Part 2, 100 mg): 1 (16.7)
Abdominal pain, n (%) (Part 2, 100 mg): 0
Abnormal dreams, n (%) (Part 2, 100 mg): 0
Administration site irritation, n (%) (Part 2, 100 mg): 2 (33.3)
Back pain, n (%) (Part 2, 100 mg): 0
Cough, n (%) (Part 2, 100 mg): 0
Dehydration, n (%) (Part 2, 100 mg): 0
Diarrhea, n (%) (Part 2, 100 mg): 1 (16.7)
Dizziness, n (%) (Part 2, 100 mg): 0
Dysgeusia, n (%) (Part 2, 100 mg): 0
Fatigue, n (%) (Part 2, 100 mg): 0
Flatulence, n (%) (Part 2, 100 mg): 0
Headache, n (%) (Part 2, 100 mg): 0
Hot flush, n (%) (Part 2, 100 mg): 1 (16.7)
Increased bronchial secretion, n (%) (Part 2, 100 mg): 0
Injection site hematoma, n (%) (Part 2, 100 mg): 2 (33.3)
Injection site reaction, n (%) (Part 2, 100 mg): 1 (16.7)
Lipase increased, n (%) (Part 2, 100 mg): 0
Myalgia, n (%) (Part 2, 100 mg): 1 (16.7)
Nasopharyngitis, n (%) (Part 2, 100 mg): 0
Nausea, n (%) (Part 2, 100 mg): 0
Oral dysaesthesia, n (%) (Part 2, 100 mg): 0
Oropharyngeal pain, n (%) (Part 2, 100 mg): 0
Paresthesia, n (%) (Part 2, 100 mg): 0
Patients with ≥1 TEAEs, n (%) (Part 2, 100 mg): 5 (83.3)
Regurgitation, n (%) (Part 2, 100 mg): 0
Skin irritation, n (%) (Part 2, 100 mg): 0
Skin reaction, n (%) (Part 2, 100 mg): 0
Somnolence, n (%) (Part 2, 100 mg): 1 (16.7)
Vertigo, n (%) (Part 2, 100 mg): 0
Vessel puncture site hematoma, n (%) (Part 2, 100 mg): 1 (16.7)
Vision blurred, n (%) (Part 2, 100 mg): 0
Abdominal discomfort, n (%) (Part 2, 200 mg): 0
Abdominal pain, n (%) (Part 2, 200 mg): 1 (16.7)
Abnormal dreams, n (%) (Part 2, 200 mg): 0
Administration site irritation, n (%) (Part 2, 200 mg): 0
Back pain, n (%) (Part 2, 200 mg): 0
Cough, n (%) (Part 2, 200 mg): 0
Dehydration, n (%) (Part 2, 200 mg): 0
Diarrhea, n (%) (Part 2, 200 mg): 0
Dizziness, n (%) (Part 2, 200 mg): 1 (16.7)
Dysgeusia, n (%) (Part 2, 200 mg): 0
Fatigue, n (%) (Part 2, 200 mg): 1 (16.7)
Flatulence, n (%) (Part 2, 200 mg): 0
Headache, n (%) (Part 2, 200 mg): 1 (16.7)
Hot flush, n (%) (Part 2, 200 mg): 1 (16.7)
Increased bronchial secretion, n (%) (Part 2, 200 mg): 0
Injection site hematoma, n (%) (Part 2, 200 mg): 0
Injection site reaction, n (%) (Part 2, 200 mg): 0
Lipase increased, n (%) (Part 2, 200 mg): 0
Myalgia, n (%) (Part 2, 200 mg): 0
Nasopharyngitis, n (%) (Part 2, 200 mg): 0
Nausea, n (%) (Part 2, 200 mg): 0
Oral dysaesthesia, n (%) (Part 2, 200 mg): 0
Oropharyngeal pain, n (%) (Part 2, 200 mg): 0
Paresthesia, n (%) (Part 2, 200 mg): 0
Patients with ≥1 TEAEs, n (%) (Part 2, 200 mg): 5 (83.3)
Regurgitation, n (%) (Part 2, 200 mg): 1 (16.7)
Skin irritation, n (%) (Part 2, 200 mg): 0
Skin reaction, n (%) (Part 2, 200 mg): 1 (16.7)
Somnolence, n (%) (Part 2, 200 mg): 0
Vertigo, n (%) (Part 2, 200 mg): 0
Vessel puncture site hematoma, n (%) (Part 2, 200 mg): 0
Vision blurred, n (%) (Part 2, 200 mg): 1 (16.7)
participants discontinued due to a TEAE (mild transaminases increased) (Part 2, 200 mg group, after 8 days): 1
abdominal discomfort, back pain, hot flush, paresthesia, regurgitation, skin reaction: incidence of each (Part 2, all treated [2/18]): 11.1%
administration site irritation, incidence (Part 2, all treated [3/18]): 16.7%
Abdominal discomfort, n (%) (Part 2, total N = 18): 2 (11.1)
Abdominal pain, n (%) (Part 2, total N = 18): 1 (5.6)
Abnormal dreams, n (%) (Part 2, total N = 18): 0
Administration site irritation, n (%) (Part 2, total N = 18): 3 (16.7)
Back pain, n (%) (Part 2, total N = 18): 1 (16.7)
Cough, n (%) (Part 2, total N = 18): 0
Dehydration, n (%) (Part 2, total N = 18): 0
Diarrhea, n (%) (Part 2, total N = 18): 1 (5.6)
Dizziness, n (%) (Part 2, total N = 18): 1 (5.6)
Dysgeusia, n (%) (Part 2, total N = 18): 0
Fatigue, n (%) (Part 2, total N = 18): 1 (5.6)
Flatulence, n (%) (Part 2, total N = 18): 1 (5.6)
Headache, n (%) (Part 2, total N = 18): 1 (5.6)
Hot flush, n (%) (Part 2, total N = 18): 2 (11.1)
Increased bronchial secretion, n (%) (Part 2, total N = 18): 0
Injection site hematoma, n (%) (Part 2, total N = 18): 2 (11.1)
Injection site reaction, n (%) (Part 2, total N = 18): 2 (11.1)
Lipase increased, n (%) (Part 2, total N = 18): 0
Myalgia, n (%) (Part 2, total N = 18): 0
Nasopharyngitis, n (%) (Part 2, total N = 18): 0
Nausea, n (%) (Part 2, total N = 18): 0
Oropharyngeal pain, n (%) (Part 2, total N = 18): 0
Paresthesia, n (%) (Part 2, total N = 18): 2 (11.1)
Regurgitation, n (%) (Part 2, total N = 18): 2 (11.1)
Skin irritation, n (%) (Part 2, total N = 18): 0
Skin reaction, n (%) (Part 2, total N = 18): 2 (11.1)
Somnolence, n (%) (Part 2, total N = 18): 1 (5.6)
Vertigo, n (%) (Part 2, total N = 18): 0
Vessel puncture site hematoma, n (%) (Part 2, total N = 18): 1 (5.6)
Vision blurred, n (%) (Part 2, total N = 18): 1 (5.6)
serious TEAEs (Parts 1 and 2): No serious TEAEs
severity of TEAEs (Parts 1 and 2): mild to moderate
